Reference: US6858638B2, “Substituted indazoles, compositions containing them, method of production and use” (Aventis Pharma S.A., priority 2002, dated 2005)
Blank lines part the entries; values can stand above or below the molecule they belong to.

Experiments:
Assay type in all cases: biochemical
human KDR enzyme = target: T1, human KDR enzyme (Homo sapiens, UniProt P35968); test: KDR substrate (PLCγ) phosphorylation, scintillation assay; settings: 10 μM; for inhibition at 10 µM: read-out: KDR % inhib at 10 μM
T1 construct: The cytoplasmic domain of the human KDR enzyme; GST; made in house; host or cells: SF21 insect cells (baculovirus)
In short: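 Values are percent inhibition relative to the compound-free control, read by scintillation counting of 33P incorporation after EDTA stop. Baculovirus/SF21-expressed GST-KDR cytoplasmic domain (100 ng) acted for 1 h at 37 °C in pH 7.2 MOPS kinase buffer. The substrate was GST-PLCγ SH2-SH3 (2 μg), added with γ33P-ATP and 2 μM unlabeled ATP.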

Aurora2 kinase = target: T2, Aurora2 kinase (Homo sapiens, UniProt O14965); test: Aurora2 kinase radioactivity scintillation assay using nickel chelate (NuMA substrate); settings: 10 μM; read-out: Aurora2 % inhib at 10 μM
T2 construct: A complete recombinant Aurora2 enzyme; His tag (N); made in house; host or cells: E. coli
T2 sequence (O14965 1-403): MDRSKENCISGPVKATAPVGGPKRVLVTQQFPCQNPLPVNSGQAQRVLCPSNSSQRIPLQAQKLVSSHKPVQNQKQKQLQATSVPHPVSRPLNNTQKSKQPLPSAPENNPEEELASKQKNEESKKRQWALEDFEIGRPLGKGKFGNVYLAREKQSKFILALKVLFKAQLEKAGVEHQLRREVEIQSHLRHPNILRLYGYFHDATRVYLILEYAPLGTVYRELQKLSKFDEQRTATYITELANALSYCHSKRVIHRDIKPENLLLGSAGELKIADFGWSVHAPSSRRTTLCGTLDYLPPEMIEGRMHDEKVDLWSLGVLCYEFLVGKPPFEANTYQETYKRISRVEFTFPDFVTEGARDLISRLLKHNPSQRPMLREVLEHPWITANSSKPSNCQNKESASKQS
In short: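 Read-out is 33P incorporation into His-NuMA (Q1687-H2101, 0.5 μM) captured on nickel chelate, after 30 min at 37 °C with 0.02 μM His-Aurora2 and 1 μM ATP. Expressed as percentage inhibition of uncompounded control activity, background subtracted.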

human FAK = target: T3, human FAK (Homo sapiens, UniProt Q05397); test: FAK autophosphorylation inhibition, time resolved fluorescence (HTRF) assay; settings: 10 μM (values without asterisk); read-out: FAK % inhib at 10 μM
T3 construct: The complete cDNA of human FAK; made in house; host or cells: baculovirus expression system (vector pFastBac HTc)
In short: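 Autophosphorylation was detected by europium-cryptate anti-pTyr and XL665 anti-His energy transfer, percent inhibition from the 665/620 ratio relative to no-compound wells. Enzyme: His-FAK full length, 6.6 µg/ml, incubated 1 h at 37 °C, pH 7.2, 15 µM ATP.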

[1] = target: T4, human IGF1R cytoplasmic domain (Homo sapiens, UniProt P08069); test: IGF1R autophosphorylation inhibition, time resolved fluorescence (HTRF) assay; settings: 10 μM; read-out: IGF1R % inhib at 10 μM
T4 construct: The human IGF1R cytoplasmic domain was cloned; made in house; host or cells: SF21 insect cells (baculovirus)
Experimental: The inhibitory activity of the compounds on IGF1R is determined by measuring the inhibition of the autophosphorylation of the enzyme using a time resolved fluorescence (HTRF) assay.
The human IGF1R cytoplasmic domain was cloned, as a fusion with glutathione S-transferase (GST), into the baculovirus expression vector pFastBac-GST. The protein was expressed in SF21 cells and purified to approximately 80% homogeneity.
The kinase activity was determined by incubating the enzyme with various concentrations of test compound in a 50 mM Hepes buffer, pH 7.5, containing 5 mM MnCl2, 50 mM NaCl, 3% glycerol, 0.025% Tween […] of ATP. The enzyme reaction is stopped by adding 100 mM Hepes buffer, pH 7.0, containing 0.4 M KF, 133 mM EDTA and 0.1% BSA containing an anti-GST antibody labeled with XL665 and an antiphosphotyrosine antibody conjugated to europium cryptate (Eu-K). The characteristics of the two fluorophores, XL-665 and Eu-K, are available in G. Mathis et al., Anticancer Research, 1997, 17, pages 3011-3014. The transfer of energy from the excited europium cryptate to the acceptor XL665 is proportional to the degree of autophosphorylation of IGF1R. The long-lived signal specific for XL-665 is measured in a Victor analyzer plate counter (Perkin-elmer). The inhibition of the IGF1R autophosphorylation activity with compounds of the invention is expressed as percentage inhibition compared to a control whose activity is measured in the absence of test compound.

T1 sequence (P35968 786-1356 limits assumed): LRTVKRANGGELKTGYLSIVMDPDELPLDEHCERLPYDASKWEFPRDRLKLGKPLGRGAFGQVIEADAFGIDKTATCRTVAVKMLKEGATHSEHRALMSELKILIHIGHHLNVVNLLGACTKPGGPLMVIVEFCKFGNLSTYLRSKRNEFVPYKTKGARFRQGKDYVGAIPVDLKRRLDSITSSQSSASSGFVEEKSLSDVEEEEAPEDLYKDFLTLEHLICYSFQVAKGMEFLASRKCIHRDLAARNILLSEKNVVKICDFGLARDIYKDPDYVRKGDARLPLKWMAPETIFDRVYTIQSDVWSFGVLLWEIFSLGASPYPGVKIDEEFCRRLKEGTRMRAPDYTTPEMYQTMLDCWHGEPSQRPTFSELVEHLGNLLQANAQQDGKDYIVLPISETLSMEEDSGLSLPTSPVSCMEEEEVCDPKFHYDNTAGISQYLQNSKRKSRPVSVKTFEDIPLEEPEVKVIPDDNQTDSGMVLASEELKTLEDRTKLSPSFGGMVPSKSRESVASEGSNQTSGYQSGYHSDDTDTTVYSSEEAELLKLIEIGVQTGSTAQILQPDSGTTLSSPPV
T4 sequence (P08069 960-1367 limits assumed): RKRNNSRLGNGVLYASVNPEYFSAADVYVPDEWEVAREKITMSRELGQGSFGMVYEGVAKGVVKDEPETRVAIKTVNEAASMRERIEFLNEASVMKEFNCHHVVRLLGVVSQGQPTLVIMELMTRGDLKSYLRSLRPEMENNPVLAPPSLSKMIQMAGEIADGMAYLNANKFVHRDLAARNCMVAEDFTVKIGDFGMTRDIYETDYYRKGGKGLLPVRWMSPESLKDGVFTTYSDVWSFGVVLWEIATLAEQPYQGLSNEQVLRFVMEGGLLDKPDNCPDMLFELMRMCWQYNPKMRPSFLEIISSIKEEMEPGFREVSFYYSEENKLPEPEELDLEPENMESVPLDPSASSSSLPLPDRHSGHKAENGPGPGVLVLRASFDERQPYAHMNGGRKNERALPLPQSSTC
T3 sequence (Q05397 whole entry): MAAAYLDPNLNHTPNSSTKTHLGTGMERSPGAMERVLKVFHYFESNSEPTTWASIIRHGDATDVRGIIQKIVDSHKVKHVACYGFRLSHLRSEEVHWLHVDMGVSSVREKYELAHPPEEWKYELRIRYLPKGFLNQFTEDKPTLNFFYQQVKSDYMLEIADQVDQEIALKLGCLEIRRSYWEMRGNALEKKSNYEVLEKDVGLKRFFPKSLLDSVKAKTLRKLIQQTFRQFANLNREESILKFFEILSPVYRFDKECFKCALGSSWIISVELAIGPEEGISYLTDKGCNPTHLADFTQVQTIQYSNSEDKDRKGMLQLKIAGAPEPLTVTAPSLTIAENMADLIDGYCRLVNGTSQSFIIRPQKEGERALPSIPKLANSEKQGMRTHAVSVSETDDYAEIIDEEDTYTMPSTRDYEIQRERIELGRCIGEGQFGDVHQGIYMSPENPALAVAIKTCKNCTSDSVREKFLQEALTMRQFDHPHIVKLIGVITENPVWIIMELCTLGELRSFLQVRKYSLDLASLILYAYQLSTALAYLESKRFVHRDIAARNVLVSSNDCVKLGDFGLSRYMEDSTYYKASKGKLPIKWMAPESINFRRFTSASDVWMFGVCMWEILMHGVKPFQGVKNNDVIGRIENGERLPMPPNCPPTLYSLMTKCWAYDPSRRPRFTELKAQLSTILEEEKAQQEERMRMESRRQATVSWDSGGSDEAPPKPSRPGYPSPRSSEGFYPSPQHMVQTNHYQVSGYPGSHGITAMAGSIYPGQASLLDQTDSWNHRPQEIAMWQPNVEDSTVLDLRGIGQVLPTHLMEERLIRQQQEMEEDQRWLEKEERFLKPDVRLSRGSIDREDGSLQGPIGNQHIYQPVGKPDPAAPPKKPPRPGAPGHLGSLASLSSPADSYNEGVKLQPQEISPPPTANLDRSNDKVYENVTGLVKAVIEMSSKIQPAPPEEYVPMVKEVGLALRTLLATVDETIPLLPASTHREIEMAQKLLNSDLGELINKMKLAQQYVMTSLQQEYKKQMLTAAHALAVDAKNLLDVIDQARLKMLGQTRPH

- inhibition at 10 µM (human KDR enzyme): 72%
- inhibition at 10 µM (Aurora2 kinase): 100%
- inhibition at 10 µM (human FAK): 70%
- inhibition at 10 µM [1]: 69%
Structure (SMILES): N#Cc1ccccc1S(=O)(=O)Nc1ccc2[nH]nc(-c3ccccc3)c2c1 [Example 144, 2-Cyano-N-(3-phenyl-1H-indazol-5-yl)-benzenesulfonamide]

- inhibition at 10 µM (human KDR enzyme): 57%
- inhibition at 10 µM (Aurora2 kinase): 100%
- inhibition at 10 µM (human FAK): 78%
- inhibition at 10 µM [1]: 67%
Structure (SMILES): O=S(=O)(Nc1ccc2[nH]nc(-c3ccccc3)c2c1)c1cccc2nonc12 [Example 149, N-(3-Phenyl-1H-indazol-5-yl)-benzo[1,2,5]oxadiazole-4-sulfonamide]

- inhibition at 10 µM (human KDR enzyme): 61%
- inhibition at 10 µM (Aurora2 kinase): 61%
- inhibition at 10 µM (human FAK): 5%
- inhibition at 10 µM [1]: 50%
Structure (SMILES): CS(=O)(=O)c1ccc(S(=O)(=O)Nc2ccc3[nH]nc(-c4ccccc4)c3c2)cc1 [Example 155, 4-Methanesulfonyl-N-(3-phenyl-1H-indazol-5-yl)-benzenesulfonamide]

- inhibition at 10 µM (human KDR enzyme): 57%
- inhibition at 10 µM (Aurora2 kinase): 91%
- inhibition at 10 µM (human FAK): 97%
- inhibition at 10 µM [1]: 82%
Structure (SMILES): CS(=O)(=O)c1ccccc1S(=O)(=O)Nc1ccc2[nH]nc(-c3cccc([N+](=O)[O-])c3)c2c1 [Example 162, 2-Methanesulfonyl-N-[3-(3-nitrophenyl)-1H-indazol-5-yl]-benzenesulfonamide]

- inhibition at 10 µM (human KDR enzyme): 58%
- inhibition at 10 µM (Aurora2 kinase): 92%
- inhibition at 10 µM (human FAK): 96%
- inhibition at 10 µM [1]: 71%
Structure (SMILES): Cc1cccc(-c2n[nH]c3ccc(NS(=O)(=O)c4ccccc4S(C)(=O)=O)cc23)c1 [Example 165, 2-Methanesulfonyl-N-(3-m-tolyl-1H-indazol-5-yl)-benzenesulfonamide]

- inhibition at 10 µM (human KDR enzyme): 60%
- inhibition at 10 µM (Aurora2 kinase): 69%
- inhibition at 10 µM (human FAK): 62%
- inhibition at 10 µM [1]: 41%
Structure (SMILES): CS(=O)(=O)c1ccccc1S(=O)(=O)Nc1ccc2[nH]nc(-c3ccc(-c4ccccc4)cc3)c2c1 [Example 170, N-(3-Biphenyl-4-yl-1H-indazol-5-yl)-2-methanesulfonyl-benzenesulfonamide]

- inhibition at 10 µM (human KDR enzyme): 32%
- inhibition at 10 µM (Aurora2 kinase): 77%
- inhibition at 10 µM (human FAK): 62%
- inhibition at 10 µM [1]: 27%
Structure (SMILES): CS(=O)(=O)c1ccccc1S(=O)(=O)Nc1ccc2[nH]nc(-c3ccccc3-c3ccccc3)c2c1 [Example 173, N-(3-Biphenyl-2-yl-1H-indazol-5-yl)-2-methanesulfonyl-benzenesulfonamide]

Second part, the molecule before the results:

Structure (SMILES): CC1(C)[C@H]2CCC1(CS(=O)(=O)Nc1ccc3[nH]nc(-c4ccccc4)c3c1)C(=O)C2 [Example 148, C-(7,7-Dimethyl-2-oxo-bicyclo[2.2.1]hept-1-yl)-N-(3-phenyl-1H-indazol-5-yl)-methanesulfonamide]
- inhibition at 10 µM (human KDR enzyme): 61%
- inhibition at 10 µM (Aurora2 kinase): 77%
- inhibition at 10 µM (human FAK): 36%
- inhibition at 10 µM [1]: 30%

Structure (SMILES): Nc1cc(Cl)cc(Cl)c1S(=O)(=O)Nc1ccc2[nH]nc(-c3ccccc3)c2c1 [Example 159, 2-Amino-4,6-dichloro-N-(3-phenyl-1H-indazol-5-yl)-benzenesulfonamide]
- inhibition at 10 µM (human KDR enzyme): 86%
- inhibition at 10 µM (Aurora2 kinase): 77%
- inhibition at 10 µM (human FAK): 53%
- inhibition at 10 µM [1]: 58%

Structure (SMILES): CS(=O)(=O)c1ccccc1S(=O)(=O)Nc1ccc2[nH]nc(-c3ccc(Br)cc3)c2c1 [Example 161, N-[3-(4-Bromophenyl)-1H-indazol-5-yl]-2-methanesulfonyl-benzenesulfonamide]
- inhibition at 10 µM (human KDR enzyme): 65%
- inhibition at 10 µM (Aurora2 kinase): 89%
- inhibition at 10 µM (human FAK): 61%
- inhibition at 10 µM [1]: 75%

Structure (SMILES): CS(=O)(=O)c1ccccc1S(=O)(=O)Nc1ccc2[nH]nc(-c3ccc(Cl)cc3Cl)c2c1 [Example 163, N-[3-(2,4-Dichlorophenyl)-1H-indazol-5-yl]-2-methanesulfonyl-benzenesulfonamide]
- inhibition at 10 µM (human KDR enzyme): 61%
- inhibition at 10 µM (Aurora2 kinase): 64%
- inhibition at 10 µM (human FAK): 61%
- inhibition at 10 µM [1]: 23%

Structure (SMILES): Cc1ccc(-c2n[nH]c3ccc(NS(=O)(=O)c4ccccc4S(C)(=O)=O)cc23)cc1 [Example 164, 2-Methanesulfonyl-N-(3-p-tolyl-1H-indazol-5-yl)-benzenesulfonamide]
- inhibition at 10 µM (human KDR enzyme): 71%
- inhibition at 10 µM (Aurora2 kinase): 91%
- inhibition at 10 µM (human FAK): 90%
- inhibition at 10 µM [1]: 66%

Structure (SMILES): CN(C)c1cccc2c(S(=O)(=O)Nc3cccc(-c4n[nH]c5ccc(NS(=O)(=O)c6ccccc6S(C)(=O)=O)cc45)c3)cccc12 [Example 166, N-{3-[5-(2-Methanesulfonyl-benzenesulfonylamino)-1H-indazol-3-yl]phenyl}-5-dimethylaminonaphthalene-1-sulfonamide]
- inhibition at 10 µM (human KDR enzyme): 33%
- inhibition at 10 µM (Aurora2 kinase): 61%
- inhibition at 10 µM (human FAK): 53%
- inhibition at 10 µM [1]: 20%

Structure (SMILES): CS(=O)(=O)c1ccccc1S(=O)(=O)Nc1ccc2[nH]nc(-c3ccc(F)c(Cl)c3)c2c1 [Example 167, N-[3-(3-Chloro-4-fluoro-phenyl)-1H-indazol-5-yl]-2-methanesulfonyl-benzenesulfonamide]
- inhibition at 10 µM (human KDR enzyme): 44%
- inhibition at 10 µM (Aurora2 kinase): 90%
- inhibition at 10 µM (human FAK): 91%
- inhibition at 10 µM [1]: 77%

Structure (SMILES): CS(=O)(=O)c1ccccc1S(=O)(=O)Nc1ccc2[nH]nc(-c3cc(Cl)cc(Cl)c3)c2c1 [Example 168, N-[3-(3,5-Dichlorophenyl)-1H-indazol-5-yl]-2-methanesulfonyl-benzenesulfonamide]
- inhibition at 10 µM (human KDR enzyme): 49%
- inhibition at 10 µM (Aurora2 kinase): 87%
- inhibition at 10 µM (human FAK): 95%
- inhibition at 10 µM [1]: 50%

Structure (SMILES): CS(=O)(=O)c1ccccc1S(=O)(=O)Nc1ccc2[nH]nc(-c3cccc4c3oc3ccccc34)c2c1 [Example 169, N-(3-(Dibenzofuran-4-yl)-1H-indazol-5-yl)-2-methanesulfonyl-benzenesulfonamide]
- inhibition at 10 µM (human KDR enzyme): 66%
- inhibition at 10 µM (Aurora2 kinase): 52%
- inhibition at 10 µM (human FAK): 22%
- inhibition at 10 µM [1]: 13%

Structure (SMILES): CS(=O)(=O)c1ccccc1S(=O)(=O)Nc1ccc2[nH]nc(-c3ccc(Oc4ccccc4)cc3)c2c1 [Example 171, 2-Methanesulfonyl-N-[3-(4-phenoxyphenyl)-1H-indazol-5-yl]benzenesulfonamide]
- inhibition at 10 µM (human KDR enzyme): 40%
- inhibition at 10 µM (Aurora2 kinase): 59%
- inhibition at 10 µM (human FAK): 25%
- inhibition at 10 µM [1]: 20%

Structure (SMILES): CSc1ccc(-c2n[nH]c3ccc(NS(=O)(=O)c4ccccc4S(C)(=O)=O)cc23)cc1 [Example 172, 2-Methanesulfonyl-N-[3-(4-methylsulfanylphenyl)-1H-indazol-5-yl]-benzenesulfonamide]
- inhibition at 10 µM (human KDR enzyme): 71%
- inhibition at 10 µM (Aurora2 kinase): 94%
- inhibition at 10 µM (human FAK): 92%
- inhibition at 10 µM [1]: 84%

Structure (SMILES): CS(=O)(=O)c1ccccc1S(=O)(=O)Nc1ccc2[nH]nc(-c3cccs3)c2c1 [Example 174, 2-Methanesulfonyl-N-(3-thiophen-2-yl-1H-indazol-5-yl)-benzenesulfonamide]
- KDR % inhib at 10 μM (human KDR enzyme): 53%
- inhibition at 10 µM (Aurora2 kinase): 93%
- inhibition at 10 µM (human FAK): 100%
- inhibition at 10 µM [1]: 65%

Structure (SMILES): CS(=O)(=O)c1ccccc1S(=O)(=O)Nc1ccc2[nH]nc(-c3cccc(C(F)(F)F)c3)c2c1 [Example 175, N-[3-(3-Trifluoromethylphenyl)-1H-indazol-5-yl]-2-methanesulfonyl-benzenesulfonamide]
- inhibition at 10 µM (human KDR enzyme): 68%
- inhibition at 10 µM (Aurora2 kinase): 88%
- inhibition at 10 µM (human FAK): 90%
- inhibition at 10 µM [1]: 81%
